Here are results for 2 compounds from PMC6630718, “Discovery of Novel UV-Filters with Favorable Safety Profiles in the 5-Arylideneimidazolidine-2,4-dione Derivatives Group” (Molecules, 2019).

Where two headings read alike, the source gives them in different places.

The nature of data set [1]: Ultraviolet spectroscopy in methanol solutions. In kind it is physicochemical. The following applies: for Absorption Range: scan range 290–400 nm. The method in brief:
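Spectra recorded from 290–400 nm in methanol (50 or 25 μM) in 1 cm quartz cuvettes. εmax taken as the slope of absorbance vs. concentration over 10–50 μM or 2.5–30 μM.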

Data set [2] in a line: In vitro photoprotection study of 2% (w/w) macrogol formulations on PMMA plates. The following applies: for UVA PF / UVA/UVB Ratio / λc (critical wavelength): 2% (w/w) macrogol formulation F1 (Triacetin 4.8%); for SPFin vitro: 2% (w/w) macrogol formulation F1 (Tween 20, PEG-400, PEG-1500, Triacetin 4.8%). The method in brief:
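Compounds at 2% in macrogol (PEG-400/PEG-1500) formulations, predissolved in triacetin:Tween 20 (1:9) or DMSO; 32.5 mg applied to 25 cm² PMMA plates (5 µm roughness), glycerin-treated plate as reference. Per EN ISO 24443:2012, modified: reflectance absorbance 290–400 nm in 1 nm steps, averaged over 12 scans.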

A short description of data set [3]: Photostability in methanol solutions (solar light simulator). In kind it is physicochemical. Details: λmax pre-irradiation: unit not given beside the values. Particulars: methanol solution; for % of initial AUC post-irradiation / λmax post-irradiation: 1h irradiation at 500 W/m2. The method in brief: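 Compounds at 25 or 50 µM in methanol, in stoppered quartz cuvettes, were irradiated 1 h at 500 W/m^2 (UV dose 218 kJ/m^2). A solar simulator filtered below 290 nm with an IR block was used. UV absorption spectra before and after irradiation were compared, with UPLC-MS/MS analysis, in duplicate.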

Data set [4] is described as follows: Ames MPF Penta 2 microplate mutagenicity assay, TA98. In kind it is cell-based. Particulars: Salmonella typhimurium, read-out: FIB (fold induction over baseline). Here is the method:
The assay is a liquid microplate modification of the traditional Salmonella test. During the procedure, bacteria are exposed to different concentrations of a test compound for 90 min in a medium containing sufficient histidine (S. typhimurium) or tryptophan (E. coli) to support cell divisions. Then, the cultures are diluted in pH indicator medium lacking histidine or tryptophan and aliquoted into 48 wells of a 384-well plate. Within 48 hours, cells that have undergone reversion to amino acid prototrophy will grow into colonies. Bacterial metabolism reduces pH of the medium, changing the color of that well from purple to yellow (https://www.xenometrix.ch).
The following strains were used in the study: S. typhimurium TA98, TA100, TA1535, TA1537 and E. coli wp2 uvrA[pKM101]. TA100, TA1535 and E. coli strains are used for the detection of base substitution mutations, whereas TA98 and TA1537 are utilized for the detection of frameshift mutations. S. typhimurium strains have GC base pairs, whereas E. coli strain has AT base pair at their primary reversion site and detect certain oxidizing mutagens, cross-linking agents and hydrazines.
The test procedure provided by Xenometrix (https://www.xenometrix.ch) and described earlier was followed. Briefly, the bacterial strains were grown overnight in exposure medium and exposed to test compounds 4g and 3b in 24-well plates for 90 min at 37 °C with agitation in the absence (–S9) or presence (+S9) of 4.5% phenobarbital/ β-naphthoflavone-induced rat liver S9. Compounds 4g and 3b were dissolved in DMSO and tested at final concentrations of 0.1, 0.2 and 0.5 mM. After the preincubation, the cultures were diluted in the indicator medium and the contents of each 24-well culture were distributed into 48 wells on a 384-well plate and incubated further for 48 h at 37 °C without agitation. After the exposure, the number of wells containing bacteria was scored by eye for yellow wells. Positive and negative controls were included in the assay, and all doses were done in triplicate.
Pure DMSO was used as the negative control.
The fold increase of revertants relative to the solvent control was determined by dividing the mean number of positive wells at each dose by the solvent control at baseline. The solvent control at baseline was defined as the mean number of positive wells in the solvent control plus one standard deviation (SD). When an increase of more than 2-fold relative to the baseline at more than one dose with a dose–response is observed the sample is classified as positive, whereas when no response >2 times the baseline and no dose–response is stated the sample is negative.

Setting [5] is: S. typhimurium TA98 without S9 (–S9), TA98, –S9, 0.1 mM.
The mark [6] stands for this setting: S. typhimurium TA98 without S9 (–S9), TA98, –S9, 0.2 mM.
[7] abbreviates: S. typhimurium TA98 without S9 (–S9), TA98, –S9, 0.5 mM.

Regarding `CCOC(=O)CN1C(=O)/C(=C/c2ccc(OC)cc2)N(CC(=O)OCC)C1=O` [Compound 3b, Diethyl 2,2′-((Z)-4-(4-methoxybenzylidene)-2,5-dioxoimidazolidine-1,3-diyl)diacetate], in data set [1], the εmax was found to be 16310 M⁻¹ cm⁻¹, the λmax was 318 nm and the “Absorption Range” value is listed as 290–362 nm. In data set [2], the “UVA PF” value turned out to be 2.59 ± 0.23, the “UVA/UVB Ratio” value amounted to 0.84 ± 0.08, the λc (critical wavelength) worked out at 366 nm and the SPFin vitro was determined as 3.07 ± 0.04. For the same compound, in data set [3], the λmax pre-irradiation is given as 318, the “% of initial AUC post-irradiation” value is 114.39% and the λmax post-irradiation is on record as 326. Moreover, the “percentage of photoisomer formation” value in data set [3] (post-irradiation chromatogram) is 28.4%. In data set [4] (setting [5]), the fold induction at 90 min, 0.1 mM is 0.9. Moreover, the fold induction at 90 min, 0.2 mM in data set [4] (setting [6]) came out at 0.2. The fold induction at 90 min, 0.5 mM in data set [4] (setting [7]) was found to be 0.9. In addition, the fold induction at 90 min, 0.1 mM in data set [4] (TA98, +S9, 0.1 mM) was 0.2. In data set [4] (TA98, +S9, 0.2 mM), the fold induction at 90 min, 0.2 mM worked out at 0.4. Besides, the fold induction at 90 min, 0.5 mM in data set [4] (TA98, +S9, 0.5 mM) was 0.3.

Consider `CCOC(=O)CN1C(=O)/C(=C/C=C/c2ccc(OC)cc2)N(CC(=O)OCC)C1=O` [Compound 4g, Diethyl 2,2′-((Z)-4-((E)-3-(4-methoxyphenyl)allylidene)-2,5-dioxoimidazolidine-1,3-diyl)diacetate], for which, in data set [1], the εmax stood at 54996 M⁻¹ cm⁻¹, the λmax is recorded as 379 nm and the “Absorption Range” value was 290–400 nm. In addition, in data set [2], the “UVA PF” value stood at 6.83 ± 0.05, the “UVA/UVB Ratio” value is on record as 4.50 ± 0.32, the λc (critical wavelength) came to 391 nm and the SPFin vitro was found to be 1.68 ± 0.04. Moreover, in data set [3], the “decrease of AUC after irradiation” value is recorded as 19.9%, the λmax pre-irradiation was 379, the “% of initial AUC post-irradiation” value is reported as 80.15% and the λmax post-irradiation is on record as 378. In addition, in data set [4] (setting [5]), the fold induction at 90 min, 0.1 mM was 0.5. Further, the fold induction at 90 min, 0.2 mM in data set [4] (setting [6]) is 0.9. Also, the fold induction at 90 min, 0.5 mM in data set [4] (setting [7]) is 0.2. Also, in data set [4] (TA98, +S9, 0.1 mM), the fold induction at 90 min, 0.1 mM is 0.3. Further, the fold induction at 90 min, 0.2 mM in data set [4] (TA98, +S9, 0.2 mM) amounted to 0.4. The fold induction at 90 min, 0.5 mM in data set [4] (TA98, +S9, 0.5 mM) amounted to 0.6.
